Assay results published in patent US20250263370A1 (Tay Therapeutics Limited, priority 2022, published 2025).
“And” between values parts separate entries of the source, which are not always exact repeats. Identical values can stand only once.

Test system: collagen-induced arthritis
Test: Collagen-induced arthritis (CIA) model in rats: body weight, paw volume, clinical scores, clinical observations; for Average detailed clinical score, left hind limb: key of the grades not given here; for Average detailed clinical score, right hind limb: key of the grades not given here; for Detailed Clinical Scores, left forelimb: key of the grades not given here; for Detailed Clinical Scores, left hind limb: key of the grades not given here; for Detailed Clinical Scores, right forelimb: key of the grades not given here; for Detailed Clinical Scores, right hind limb: key of the grades not given here; for Detailed Clinical Scores, score: key of the grades not given here; for Mean overall clinical score ± SD: key of the grades not given here; for Overall clinical score: key of the grades not given here
Conditions: for Mean animal paw volume ± SD: group mean; for Detailed Clinical Scores, left forelimb / Detailed Clinical Scores, left hind limb / Detailed Clinical Scores, right forelimb / Detailed Clinical Scores, right hind limb / Detailed Clinical Scores, score: individual animals ID 1-8; for Overall clinical score: individual animals #1-8
[1] = CIA rats, daily P.O. (group 4), day 21
[2] = CIA rats, daily P.O. for 21 days

For CNC(=O)c1cc(C(=O)NC2CC2)cn(Cc2ccccc2)c1=O [GSK620], the “Average animal paw volume percent change” value (CIA rats, Day 0, left hind paw (L)) was 0.00%, the “Animal paw volume Day 0 L” value (CIA rats, Day 0, left paw, individual animals) was 1.27 mL (2×) and 1.32 mL (2×) and 1.37 mL (2×) and 1.34 mL and 1.35 mL and the “Average animal paw volume percent change” value (CIA rats, Day 0, right hind paw (R)) was 0.00%. The “Animal paw volume Day 0 R” value (CIA rats, Day 0, right paw, individual animals) was 1.27 mL and 1.31 mL and 1.28 mL and 1.37 mL (2×) and 1.33 mL (2×) and 1.34 mL, the “Average animal paw volume percent change” value (CIA rats, Day 6, left hind paw (L)) was 1.04% and the “Animal paw volume Day 6 L” value (CIA rats, Day 6, left paw, individual animals) was 1.27 mL and 1.34 mL (2×) and 1.37 mL and 1.36 mL and 1.38 mL and 1.32 mL and 1.35 mL. The “Average animal paw volume percent change” value (CIA rats, Day 6, right hind paw (R)) was 1.50%, the “Animal paw volume Day 6 R” value (CIA rats, Day 6, right paw, individual animals) was 1.27 mL and 1.35 mL and 1.38 mL and 1.37 mL and 1.39 mL and 1.33 mL (2×) and 1.34 mL and the “Average animal paw volume percent change” value (CIA rats, Day 12, left hind paw (L)) was 3.13%. For the same molecule, the “Animal paw volume Day 12 L” value (CIA rats, Day 12, left paw, individual animals) was 1.33 mL (2×) and 1.41 mL and 1.37 mL and 1.42 mL and 1.36 mL and 1.35 mL and 1.38 mL, the “Average animal paw volume percent change” value (CIA rats, Day 12, right hind paw (R)) was 3.69% and the “Animal paw volume Day 12 R” value (CIA rats, Day 12, right paw, individual animals) was 1.31 mL and 1.35 mL and 1.42 mL and 1.39 mL (2×) and 1.38 mL (2×) and 1.37 mL. For the same molecule, the “Average animal paw volume percent change” value (CIA rats, Day 13, left hind paw (L)) was 4.09%, the “Animal paw volume Day 13 L” value (CIA rats, Day 13, left paw, individual animals) was 1.34 mL (2×) and 1.43 mL (2×) and 1.36 mL and 1.37 mL and 1.38 mL and 1.40 mL and the “Average animal paw volume percent change” value (CIA rats, Day 13, right hind paw (R)) was 6.88%. The “Animal paw volume Day 13 R” value (CIA rats, Day 13, right paw, individual animals) was 1.40 mL and 1.35 mL and 1.42 mL (2×) and 1.57 mL and 1.37 mL and 1.41 mL and 1.39 mL, the “Average animal paw volume percent change” value (CIA rats, Day 14, left hind paw (L)) was 17.19% and the “Animal paw volume Day 14 L” value (CIA rats, Day 14, left paw, individual animals) was 1.55 mL and 1.78 mL and 1.44 mL and 1.36 mL and 1.43 mL and 1.40 mL and 1.73 mL (2×). The “Average animal paw volume percent change” value (CIA rats, Day 14, right hind paw (R)) was 26.62%, the “Animal paw volume Day 14 R” value (CIA rats, Day 14, right paw, individual animals) was 1.74 mL and 1.49 mL and 1.44 mL and 2.11 mL and 1.43 mL and 1.38 mL and 1.99 mL and 1.83 mL and the “Average animal paw volume percent change” value (CIA rats, Day 15, left hind paw (L)) was 31.82%. For the same molecule, the “Animal paw volume Day 15 L” value (CIA rats, Day 15, left paw, individual animals) was 2.04 mL and 2.03 mL and 1.39 mL and 1.49 mL and 1.52 mL and 1.60 mL and 2.14 mL and 1.75 mL, the “Average animal paw volume percent change” value (CIA rats, Day 15, right hind paw (R)) was 40.45% and the “Animal paw volume Day 15 R” value (CIA rats, Day 15, right paw, individual animals) was 2.05 mL and 2.08 mL and 1.38 mL and 2.42 mL and 1.47 mL and 1.56 mL and 2.13 mL and 1.79 mL. For the same molecule, the “Average animal paw volume percent change” value (CIA rats, Day 18, left hind paw (L)) was 87.52%, the “Animal paw volume Day 18 L” value (CIA rats, Day 18, left paw, individual animals) was 2.72 mL and 2.54 mL and 2.39 mL and 2.87 mL and 2.29 mL and 2.05 mL and 2.66 mL and 2.34 mL and the “Average animal paw volume percent change” value (CIA rats, Day 18, right hind paw (R)) was 78.42%. The “Animal paw volume Day 18 R” value (CIA rats, Day 18, right paw, individual animals) was 2.62 mL and 2.45 mL and 2.41 mL and 3.15 mL and 1.46 mL and 2.04 mL and 2.38 mL and 2.34 mL, the “Average animal paw volume percent change” value (CIA rats, Day 19, left hind paw (L)) was 92.23% and the “Animal paw volume Day 19 L” value (CIA rats, Day 19, left paw, individual animals) was 2.71 mL and 2.54 mL and 2.32 mL (2×) and 3.06 mL and 2.61 mL and 2.19 mL and 2.63 mL. The “Average animal paw volume percent change” value (CIA rats, Day 19, right hind paw (R)) was 78.62%, the “Animal paw volume Day 19 R” value (CIA rats, Day 19, right paw, individual animals) was 2.59 mL and 2.46 mL and 2.33 mL (2×) and 3.15 mL and 1.46 mL and 2.20 mL and 2.36 mL and the “Average animal paw volume percent change” value (CIA rats, Day 21, left hind paw (L)) was 91.34%. For the same molecule, the “Animal paw volume Day 21 L” value (CIA rats, Day 21, left paw, individual animals) was 2.71 mL and 2.51 mL and 2.34 mL and 3.04 mL and 2.62 mL and 2.21 mL and 2.54 mL and 2.32 mL, the “Average animal paw volume percent change” value (CIA rats, Day 21, right hind paw (R)) was 78.28% and the “Animal paw volume Day 21 R” value (CIA rats, Day 21, right paw, individual animals) was 2.63 mL and 2.44 mL and 2.21 mL and 3.08 mL and 1.61 mL and 2.18 mL and 2.37 mL and 2.33 mL. For the same molecule, the “animals with a clinical score of at least 2 in one or more hind limbs” value (CIA rats, daily P.O. (group 4), day 14) was 5/8, the “animals with clinical scores of 3 or greater in one or more hind limbs” value (CIA rats, daily P.O. (group 4), day 18) was “all animals” and the “animals with a clinical score of 4 in each hind limb” value [1] was 3/8. The “animals with a score of 4 in at least one hind limb” value [1] was 5/8, the “day on which clinical scores started to increase” value [2] was 14 days and the “effect on hind paw volume” value [2] was “less effective at preventing an increase in paw volume over the course of the study”. For the same molecule, the “average overall clinical score at plateau” value (CIA rats, daily P.O. for 21 days, around day 18) was 8, the “animals showing signs of disease” value (CIA rats, daily P.O., day 12) was “No animals” and the animals exhibiting disease (CIA rats, daily P.O., day 13) was 1/8. For the same molecule, the animals exhibiting disease (CIA rats, daily P.O., day 14) was 5/8, the animals exhibiting disease (CIA rats, daily P.O., day 15) was 7/8 and the animals exhibiting disease (CIA rats, daily P.O., day 18) was “all animals”. For the same molecule, the “Mean animal paw volume ± SD” value (Day 0, L paw) was 1.32 mL, the “Animal paw volume percent change” value (Day 0, L paw, individual animals) was 0.00% and the “Mean animal paw volume ± SD” value (Day 0, R paw) was 1.32 mL. The “Animal paw volume percent change” value (Day 0, R paw, individual animals) was 0.00%, the “Average detailed clinical score, left forelimb” value (Day 0, CIA rats) was 0.00 and the “Average detailed clinical score, left hind limb” value (Day 0, CIA rats) was 0.00. For the same molecule, the “Average detailed clinical score, right forelimb” value (Day 0, CIA rats) was 0.00, the “Average detailed clinical score, right hind limb” value (Day 0, CIA rats) was 0.00 and the “Average detailed clinical score, score” value (Day 0, CIA rats) was 0.00. The “Mean overall clinical score ± SD” value (Day 0, CIA rats) was 0 ± 0, the “Detailed Clinical Scores, left forelimb” value (Day 0, CIA rats) was 0 and the “Detailed Clinical Scores, left hind limb” value (Day 0, CIA rats) was 0. For the same molecule, the “Detailed Clinical Scores, right forelimb” value (Day 0, CIA rats) was 0, the “Detailed Clinical Scores, right hind limb” value (Day 0, CIA rats) was 0 and the “Detailed Clinical Scores, score” value (Day 0, CIA rats) was 0. For the same molecule, the Overall clinical score (Day 0, CIA rats) was 0, the “Mean animal paw volume ± SD” value (Day 6, L paw) was 1.34 mL and the “Animal paw volume percent change” value (Day 6, L paw, individual animals) was −0.39% and 1.52% and 7.91% and −0.73% and 0.36% and 0.00% (2×) and −0.37%. For the same molecule, the “Mean animal paw volume ± SD” value (Day 6, R paw) was 1.34 mL, the “Animal paw volume percent change” value (Day 6, R paw, individual animals) was −0.39% and 3.07% and 7.84% and 0.00% (4×) and 1.47% and the “Average detailed clinical score, left forelimb” value (Day 6, CIA rats) was 0.00. For the same molecule, the “Average detailed clinical score, left hind limb” value (Day 6, CIA rats) was 0.00, the “Average detailed clinical score, right forelimb” value (Day 6, CIA rats) was 0.00 and the “Average detailed clinical score, right hind limb” value (Day 6, CIA rats) was 0.00. The “Average detailed clinical score, score” value (Day 6, CIA rats) was 0.00, the “Mean overall clinical score ± SD” value (Day 6, CIA rats) was 0 ± 0 and the “Detailed Clinical Scores, left forelimb” value (Day 6, CIA rats) was 0. For the same molecule, the “Detailed Clinical Scores, left hind limb” value (Day 6, CIA rats) was 0, the “Detailed Clinical Scores, right forelimb” value (Day 6, CIA rats) was 0 and the “Detailed Clinical Scores, right hind limb” value (Day 6, CIA rats) was 0. For the same molecule, the “Detailed Clinical Scores, score” value (Day 6, CIA rats) was 0, the Overall clinical score (Day 6, CIA rats) was 0 and the “Mean animal paw volume ± SD” value (Day 12, L paw) was 1.36 mL. For the same molecule, the “Animal paw volume percent change” value (Day 12, L paw, individual animals) was 4.33% and 0.76% and 11.07% and 0.00% and 3.28% and 1.50% and 2.28% and 1.85%, the “Mean animal paw volume ± SD” value (Day 12, R paw) was 1.37 mL and the “Animal paw volume percent change” value (Day 12, R paw, individual animals) was 2.76% and 3.07% and 10.98% and 1.47% (2×) and 3.77% (2×) and 2.25%. The “Average detailed clinical score, left forelimb” value (Day 12, CIA rats) was 0.00, the “Average detailed clinical score, left hind limb” value (Day 12, CIA rats) was 0.00 and the “Average detailed clinical score, right forelimb” value (Day 12, CIA rats) was 0.00. The “Average detailed clinical score, right hind limb” value (Day 12, CIA rats) was 0.00, the “Average detailed clinical score, score” value (Day 12, CIA rats) was 0.00 and the “Mean overall clinical score ± SD” value (Day 12, CIA rats) was 0 ± 0. For the same molecule, the “Detailed Clinical Scores, left forelimb” value (Day 12, CIA rats) was 0, the “Detailed Clinical Scores, left hind limb” value (Day 12, CIA rats) was 0 and the “Detailed Clinical Scores, right forelimb” value (Day 12, CIA rats) was 0. For the same molecule, the “Detailed Clinical Scores, right hind limb” value (Day 12, CIA rats) was 0, the “Detailed Clinical Scores, score” value (Day 12, CIA rats) was 0 and the Overall clinical score (Day 12, CIA rats) was 0.
